This test has as its system HLA-DRα class II promoter. The test can be described thus: Luciferase assay, FRTL-5 cells stably transfected with HLA-DRα class II promoter-luciferase chimeras. Format: cell-based. Particulars: 40 hours; for inhibition at 10 µM / inhibition at 100 µM / inhibition at 1000 µM: FRTL-5, read-out: % inhibition of IFN-increased p(−137)LUC class II promoter activity; for inhibition at 10 µM / inhibition at 100 µM / inhibition at 1000 µM / % inhibition of IFN-increased p(−137)LUC class II promoter activity / Luciferase activity +γ-IFN: 100 U/ml γ-interferon; for inhibition at 10 µM / inhibition at 100 µM / inhibition at 1000 µM / % inhibition of IFN-increased p(−137)LUC class II promoter activity: 6H medium. The source says:
Similarly, the HLA DRα promoter constructs, p(−176)CAT and p(−137)CAT, inserted into the pCAT-Basic vector were released by restriction enzyme digestion, purified from agarose gel using QIAEX (QIAGEN, Chatsworth, Calif.), and used as templates for the construction by PCR of inserts with a 5′ flanking Mlul restriction site. The PCR products were purified by phenol-chloroform extraction, digested with MluI and XbaI, purified from agarose gels using QIAEX (QIAGEN, Chatsworth, Calif.) and ligated in the MluI-NheI site of the PGL-2 basic vector (PROMEGA, Madison, Wis.) using the DNA ligation kit from TAKARA biomedicals (TAKARA SHUZO Co.). JM1I9 bacterial competent cells (PROMEGA, Madison, Wis.) were transformed with the ligation reaction and plated in agar plates for 12 h at 37° C. The colonies were picked and screened with minipreps using QIAprep spin plasmid kit (QIAGEN, Chatsworth, Calif.) and restriction enzyme digestion. The plasmids were then purified by CsCI gradient centrifugation.
The PD1-PGL-2 basic constructs and the Class II-PGL-2 basic constructs were stably transfected in the FRTL-5 cells using a Lipofectamine (GIBCO, Life Technologies, Inc.) method. Near confluent cells in 6H medium were cotransfected with 20 μg of plasmid DNA and 2 μg of a pcDNA3neo or a pPUR selection vector (CLONTECH, Palo Alto, Calif.). After 24-48 hours, 400 μg/ml of G418 (GIBCO, Life Technologies, Inc.) or 10 μM of puromycin (SIGMA) were added to the medium. After 3 weeks the antibiotic-resistant colonies were cloned by limiting dilution and screened to determine their interferon sensitivity. At least 5 cell lines of each construct were isolated, each of whose activity was increased by adding 100 U/ml γ interferon to the medium of the cells. The following data (Tables 10-13) were obtained with one clone of each of the class I or class II-luciferase chimera, but were representative of at least three other clones of each.
Luciferase activity was measured using the Luciferase assay system (PROMEGA, Madison, Wis.). Briefly, treated or untreated cells from a 100 mm culture dish were washed with PBS, scraped and collected in microfuge tubes. The pellet was dissolved in 100 μl 1× reporter lysis buffer and incubated at room temperature for 15 minutes. Cells were frozen in dry ice plus ethanol and thawed in water at room temperature. After vortexing for 10 sec, tubes were centrifuged at 12,000×g for 5 min. Twenty μl of the supernatant were mixed with 100 μl of Luciferase assay reagent and immediately placed in a luminometer. Light was measured for a period of 10 sec after a 2 sec delay.
Treatment of cells, maintained either in the presence of TSH or its absence, with 100 U/ml interferon, increased class I and class II promoter activity (Table 10). In this experiment FRTL-5 cells were grown to 80% confluency in 6H medium with TSH then treated with 100 U/ml γ-interferon, 5 mM MMI or both together. Luciferase activity was measured after 40 hours as described. Several points are notable. First, interferon increases both class I and class II promoter activity in the stable transfectants. Second, MMI inhibits both interferon-increased class I and interferon-increased class II promoter activity.

Turning to `Cn1ccnc1S` [Compound 1, 1-Methylimidazole-2-thiol], the inhibition at 10 µM (10 μM) was 0%. Besides, the inhibition at 100 µM (100 μM) was 0%. Moreover, the inhibition at 1000 µM (1 mM) was found to be 37 ± 10%. Besides, the “Luciferase activity + 5 mM MMI” value by setting is: (−137 HLA-DRα-LUC) 103 ± 6 % Control; (−167 HLA-DRα-LUC) 99 ± 5 % Control.
For the molecule `Cc1ncc([N+](=O)[O-])n1CCO` [Compound 2, 2-Methyl-5-nitro-1-imidazole ethanol], the inhibition at 10 µM (10 μM) was 0%. Moreover, the inhibition at 100 µM (100 μM) turned out to be 7 ± 6%. For the same molecule, the inhibition at 1000 µM (1 mM) is 65 ± 9%.
As to `CSc1nccn1C` [Compound 7, S-Methylmethimazole], the inhibition at 10 µM (10 μM) is 0%. Also, under “100 μM”, the inhibition at 100 µM turned out to be 30 ± 7%. For the same molecule, the inhibition at 1000 µM (1 mM) was 68 ± 10%.
On to `Cn1ccn(C)c1=S` [Compound 8, N-Methylmethimazole], for which the “% inhibition of IFN-increased p(−137)LUC class II promoter activity” value reads like this: (10 μM) 0%; (100 μM) 43 ± 5%; (1 mM) 84 ± 9%.
In the case of `Cn1c(-c2ccccc2)cnc1S` [Compound 10, 5-Phenylmethimazole], the inhibition at 10 µM (10 μM) was found to be 43 ± 20%. The inhibition at 100 µM (100 μM) was found to be 80 ± 7%. Besides, where the note is “1 mM”, the inhibition at 1000 µM was 92 ± 10%.

B1: γ-IFN: rat recombinant γ-interferon, 100 U/ml, used to increase MHC class I and class II expression in FRTL-5 cells (protein, UniProt P01581 23-156, looked up)
Interferon gamma: QGTLIESLESLKNYFNSSSMDAMEGKSLLLDIWRNWQKDGNTKILESQIISFYLRLFEVLKDNQAISNNISVIESHLITNFFSNSKAKKDAFMSIAKFEVNNPQIQHKAVNELIRVIHQLSPESSLRKRKRSRC
B1: the “Luciferase activity +γ-IFN” value is, setting by setting: (−137 HLA-DRα-LUC) 695 ± 42 % Control; (−167 HLA-DRα-LUC) 790 ± 45 % Control.

In general, inhibition refers to the percentage by which the read-out fell short of the control.

These data come from patent US6365616B1, “Methimazole derivatives and tautomeric cyclic thiones to treat autoimmune diseases” (Sentron Medical, Inc., priority 1998, dated 2002).
